Reference: ChEMBL document CHEMBL1629567, “Pharmacodynamics of cidofovir for vaccinia virus infection in an in vitro hollow-fiber infection model system” (Antimicrob Agents Chemother, 2009)

Key:
[1] = Antiviral activity against Vaccinia virus IHD-J ATCC VR-156 infected in HeLaS3 cells after 3 to 5 days by plaque assay; type: functional, cell-based; conditions: ATCC VR-156, HeLa S3
[2] = test system: Vaccinia virus; assay: Antiviral activity against Vaccinia virus IHD-W ATCC VR-1441 infected in HeLaS3 cells after 3 to 5 days by plaque assay; type: functional, organism-based; conditions: Orthopoxvirus vaccinia, IHD-W ATCC VR-1441, HeLa S3
[3] = AUC in cynomolgus monkey with probenecid at 2.5 mg/kg; type: ADME, organism-based, Macaca fascicularis; design: dose 2.5 mg/kg; conditions: plasma
[4] = AUC in cynomolgus monkey with probenecid at 5 mg/kg five dose regimen for 13 days; type: ADME, organism-based, Macaca fascicularis; design: dose 5 mg/kg; conditions: plasma
[5] = AUC in cynomolgus monkey with probenecid at 5 mg/kg six dose regimen for 13 days; type: ADME, organism-based, Macaca fascicularis; design: dose 5 mg/kg; conditions: plasma
[6] = test system: Vaccinia virus; assay: Antiviral activity against Vaccinia virus WR infected in cynomolgus monkey with probenecid assessed as decrease in plasma viral titer at 6 dose regimen of 2.5 mg/kg for 13 days; type: functional, Orthopoxvirus vaccinia; design: scale not given: the % may be the effect or the level left
[7] = test system: Vaccinia virus; assay: Antiviral activity against Vaccinia virus WR infected in cynomolgus monkey with probenecid assessed as decrease in plasma viral titer at 5 dose regimen of 2.5 mg/kg for 13 days; type: functional; conditions: Orthopoxvirus vaccinia, in Macaca fascicularis, 312 h
[8] = AUC (0 to infinity) in human at 5 mg/kg administered as single dose; type: ADME, organism-based; design: time infinity, dose 5 mg/kg; conditions: plasma
[9] = AUC (0 to 24 hrs) in hollow-fiber infection model at 3 uM as continuous infusion; type: ADME; design: time < 24 hr, dose 3 uM
[10] = AUC (0 to 24 hrs) in hollow-fiber infection model at >50 uM as continuous infusion; type: ADME; design: dose 50 uM, time < 24 hr
[11] = test system: Variola major virus; assay: Antiviral activity against Variola major virus; type: functional
[12] = AUC in cynomolgus monkey with probenecid at 5 mg/kg single dose regimen for 13 days; type: ADME, organism-based, Macaca fascicularis; design: dose 5 mg/kg; conditions: plasma

Structure (SMILES): Nc1ccn(C[C@@H](CO)OCP(=O)(O)O)c(=O)n1.O.O [CIDOFOVIR]
- EC50 [1]: 18.7 µM
- EC50 [2]: 20.6 µM
- AUC [3]: 14400 ng·h/mL
- AUC at 312 h [4]: 514 µM·h
- AUC at 312 h [5]: 617 µM·h
- Activity [6]: <10%
- Emax at 2.5 mg/kg [7]: 30%
- AUC(0-inf) [8]: 75 µM·h
- AUC(0-t) at 24 h, 3 µM [9]: 72 µM·h
- AUC(0-t) at 24 h, 50 µM [10]: > 1200 µM·h
- Activity [11]: 6 µM
- AUC at 312 h [12]: 103 µM·h
